What was measured:
[1] = system: intraocular pressure in rabbits; assay: Effects of topically administered renin inhibiting compounds on intraocular pressure of rabbits; assay type: in vivo, Male albino, New Zealand rabbits; conditions: topical 0.1 ml, 0.5% active substance
Description: The antiglaucoma activity of the compounds was tested by measuring the effect on intraocular pressure in rabbits as described by Tinjum, A.M., Acta Ophthalmologica, 50, 677 (1972). Male albino, New Zealand rabbits were placed in restraining devices and the intraocular pressure was measured with an applamatic tonometer. Exactly 0.1 ml of an isotonic saline solution containing a test compound was instilled into the conjuctival sac and the intraocular pressure was measured at 5, 15, 30, 60, 90, 120 and 180 minutes afterwards.

[2] = system: intraocular pressure in rabbits; assay: Dose response study of topically administered Compound V and timolol on intraocular pressure of rabbits; assay type: in vivo, rabbit; conditions: topical
Description: (§1) The antiglaucoma activity of the compounds was tested by measuring the effect on intraocular pressure in rabbits as described by Tinjum, A.M., Acta Ophthalmologica, 50, 677 (1972). Male albino, New Zealand rabbits were placed in restraining devices and the intraocular pressure was measured with an applamatic tonometer. […]

[3] = system: intraocular pressure in rabbits; assay: Topically administered Compound V alone and in combination with timolol on intraocular pressure of rabbits; assay type: in vivo, rabbit; conditions: topical, alone, 0.05%
Description: as §1

[4] = 15 minutes after administration
[5] = 30 minutes after administration
[6] = 60 minutes after administration
[7] = 90 minutes after administration

For `CC(C)(C)NC[C@H](O)COc1nsnc1N1CCOCC1` [Timolol, reference compound], the “Mean Intraocular Pressure in mmHg” value ([1]; 5 minutes after administration) was 12.1 mmHg, the “Mean Intraocular Pressure in mmHg” value [1, 4] was 9.9 mmHg and the “Mean Intraocular Pressure in mmHg” value [1, 5] was 11.9 mmHg. For the same molecule, the “Mean Intraocular Pressure in mmHg” value [1, 6] was 10.6 mmHg, the “Mean Intraocular Pressure in mmHg” value [1, 7] was 12.4 mmHg and the “Mean Intraocular Pressure in mmHg” value ([1]; 120 minutes after administration) was 13.3 mmHg. For the same molecule, the “Mean Intraocular Pressure in mmHg” value ([2]; 0.02%, 30 minutes after administration) was 13.9 mmHg, the “Mean Intraocular Pressure in mmHg” value ([2]; 0.02%, 120 minutes after administration) was 22.4 mmHg and the “Mean Intraocular Pressure in mmHg” value ([2]; 0.02%, 150 minutes after administration) was 19.9 mmHg. The “Mean Intraocular Pressure in mmHg” value ([2]; 0.05%, 15 minutes after administration) was 12.8 mmHg, the “Mean Intraocular Pressure in mmHg” value ([2]; 0.05%, 30 minutes after administration) was 12.8 mmHg and the “Mean Intraocular Pressure in mmHg” value ([2]; 0.05%, 60 minutes after administration) was 12.3 mmHg. The “Mean Intraocular Pressure in mmHg” value ([2]; 0.05%, 150 minutes after administration) was 20.3 mmHg, the “Mean Intraocular Pressure in mmHg” value ([2]; 0.2%, 5 minutes after administration) was 12.1 mmHg and the “Mean Intraocular Pressure in mmHg” value ([2]; 0.2%, 15 minutes after administration) was 12.5 mmHg. For the same molecule, the “Mean Intraocular Pressure in mmHg” value ([2]; 0.2%, 60 minutes after administration) was 12.8 mmHg, the “Mean Intraocular Pressure in mmHg” value ([2]; 0.5%, 5 minutes after administration) was 12.8 mmHg and the “Mean Intraocular Pressure in mmHg” value ([2]; 0.5%, 15 minutes after administration) was 12.8 mmHg. For the same molecule, the “Mean Intraocular Pressure in mmHg” value ([2]; 0.5%, 30 minutes after administration) was 11.0 mmHg, the “Mean Intraocular Pressure in mmHg” value ([2]; 0.5%, 60 minutes after administration) was 10.9 mmHg and the “Mean Intraocular Pressure in mmHg” value ([3]; 5 minutes after administration) was 10.2 mmHg. The “Mean Intraocular Pressure in mmHg” value [3, 4] was 11.0 mmHg, the “Mean Intraocular Pressure in mmHg” value [3, 5] was 10.1 mmHg and the “Mean Intraocular Pressure in mmHg” value [3, 6] was 9.9 mmHg. For the same molecule, the “Mean Intraocular Pressure in mmHg” value [3, 7] was 13.9 mmHg.
